In one data set the target is T1, BCL-xL (Homo sapiens, UniProt Q07817).
T1 construct: Recombinant full length BCL-XL was produced from a pET-19b (Novagen) plasmid construct; poly-His (N); made in house; host or cells: E. coli BL21
In words: Dissociation constant (Kd) / binding to BCL-xL. The procedure: The inhibition was also evaluated by measuring dissociation constant (Kd) values for compound A in comparison with some related compounds 1, 2, and 3.
For all NMR experiments, BCL-xL was exchanged into 50 mM phosphate buffer at pH 7.5 and measurements were performed at 30° C. 2D [^15N,^1H]-HSQC spectra for BCL-xL were measured with 0.5 mM samples of ^15N-labeled protein. All experiments were performed with a 600 MHz Bruker Avance spectrometer, both equipped with either a TXI probe or a TCI cryoprobe. In all experiments, dephasing of residual water signals was obtained with a WATERGATE sequence. In order to test the ability of test compounds to bind to Bcl-xL, a 25 μM sample of the protein was prepared and 1D ^1H NMR spectra were collected in absence and presence of test compounds. By observing the aliphatic region of the spectra, binding can be readily detected in these simple experiments due to chemical shift changes in active site methyl groups of Ile, Leu, Thr, Val or Ala (region between 0.8 and 0.3 ppm).

Another data set in a line: Plasma stability. It counts as in vitro ADME.
The next data set is described as follows: Microsomal stability. It is filed as in vitro ADME.
A further data set concerns PC3ML. In words: Cell viability, PC3ML. It is filed as cell-based. As to conditions: for IC50: PC3-ML, cell viability, mean ± standard deviation of three independent experiments. The procedure:
(§1) The inhibition information for cells H460 and PC3ML is also shown by FIG. 2. […] The structures of compounds 1-3 are shown in Table 1, above, and the structure of compound 4 is as follows:
(§2) The effectiveness of compound A was also evaluated, in comparison with compound 1 shown in Table 1, by determining mean IC50 values, which were measured for three independent experiments (each in triplicate) for compounds 1 and A. All points were normalized to control as a percentage of cell viability and statistics were completed with Graphpad Prism software.

Data set [1] has as its system B6Bcl2 mice. As to the kind of experiment: Safety in B6Bcl2 mice (weight loss, physical exam). It is filed as in vivo, mouse. To be noted: regardless of route of administration (oral or intraperitoneal). On the procedure:
(§3) Compound A was given to B6Bcl2 mice at a daily dose of […] for 3 days through oral gavage. […] Both compound A and the negative control were preliminarily dissolved in PBS. After 3 days, the spleens of the animals were removed and weighed.
(§4) In parallel experiments, compound A was also administered intraperitoneally at […], as were some related compounds, such as compounds 1 and 2 shown in Table 1, above. In these experiments, after 24 hours, the spleens of the animals were removed and weighed.
(§5) The results of efficacy of compound A administered intraperitoneally were also compared with the results obtained when compound A was administered orally. […] Accordingly, compound A can be administered in both ways, orally or intraperitoneally. […] It was also shown that compound A can be administered safely.

The test system of a further data set is RS11846S. As to the kind of experiment: Cell viability IC50, RS11846S. As to conditions: mean ± standard deviation of three independent experiments. It counts as cell-based. On the procedure: as §2
For data set [2], the system named is B6Bcl2 mice. As to the kind of experiment: Spleen shrinkage / in vivo efficacy in B6Bcl2 transgenic mice. Also on record: species or system mouse. To be noted: for in vivo activity / order of potency in terms of in vivo efficacy: B6BCL-2 transgenic mouse.
Source text: In the same model, another known compound apogossypolone was not effective. Gossypol is described, e.g., in U.S. Pat. No. 7,186,708. Apogossypol is described, e.g., in Meyers A. I.; Willemsen J. J., Tetrahedron Letters, vol. 37, No. 6, February, […], pp. 791-792.
as §3, §4, §5

For a further data set, the system named is H460. As to the kind of experiment: Cell viability, H460. It counts as cell-based. To be noted: for IC50: Homo sapiens, NCI-H460, cell viability, mean ± standard deviation of three independent experiments. The procedure:
as §1, §2

In another data set the test system is A549L. As to the kind of experiment: Cell viability IC50, A549L. It is filed as cell-based. As to conditions: mean ± standard deviation of three independent experiments. On the procedure: as §2
[3] abbreviates: FIG. 2, in comparison with compounds 1-4.

A word on the Kd: it is the constant that tells how readily two partners part at equilibrium. As a reminder, the IC50 is the concentration at which inhibition is half-maximal. High values mean weaker potency in that assay, low ones greater potency in that assay.

T1 sequence (Q07817 whole entry, species assumed): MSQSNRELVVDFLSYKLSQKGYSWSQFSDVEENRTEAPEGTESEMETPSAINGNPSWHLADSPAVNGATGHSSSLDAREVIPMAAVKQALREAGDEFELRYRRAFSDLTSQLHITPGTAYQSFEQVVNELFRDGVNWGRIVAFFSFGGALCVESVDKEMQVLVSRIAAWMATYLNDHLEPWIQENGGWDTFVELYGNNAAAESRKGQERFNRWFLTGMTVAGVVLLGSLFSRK

In turn, `CC(=C\c1ccccc1)/C=C1/SC(=S)N(C(C(=O)O)C(C)C)C1=O` (stereo not drawn) [Compound 3] yielded a Kd at BCL-xL of 11800 nM. In addition, the “Plasma Stability, % (45 minutes)” value in the data set “Plasma stability” is reported as 51%. The “Microsomal Stability, % (45 minutes)” value in “Microsomal stability” came out at 75%.

For the molecule `O=C(O)CN1C(=O)S/C(=C\c2ccc(-c3ccccc3)cc2)C1=O` [Compound A, (Z)-2-(5-(biphenyl-4-ylmethylene)-2,4-dioxothiazolidin-3-yl)acetic acid], the “influence on the cell viability” value in the data set on PC3ML (setting [3]) and in the data set with H460 (setting [3]) was “largest influence on the cell viability” each time. Further, the IC50 with PC3ML is 700 ± 600 nM; in the data set on RS11846S it was 400 nM; in the data set with H460, 500 ± 300 nM; in the data set on A549L, 800 ± 300 nM. On BCL-xL, this molecule displayed a Kd of 14000 nM. Further, the “weight loss or signs of toxicity via physical exam” value in the data set with B6Bcl2 mice [1] is recorded as “no weight loss or signs of toxicity”. Besides, in the data set with B6Bcl2 mice [2], the in vivo activity entry was “equal to, or better than, known compounds gossypol and apogossypol”. The “order of potency in terms of in vivo efficacy” value in the data set with B6Bcl2 mice [2] is “compound A>apogossypol=gossypol”. The shrinkage of spleen result in the data set on B6Bcl2 mice [2] (either route, orally or intraperitoneally) is listed as “induced shrinkage of spleen”. Moreover, the “degree of shrinkage of spleen, intraperitoneal injection higher than oral dosing” value with B6Bcl2 mice [2] (intraperitoneal vs oral, FIG. 4) is given as “about 100%”. The “degree of shrinkage of spleen higher than that induced by compounds 1 or 2” value with B6Bcl2 mice [2] (intraperitoneally at 60 mmol/kg, spleens weighed after 24 hours, FIG. 3) was “about 40%”. The “Plasma Stability, % (45 minutes)” value in the data set “Plasma stability” is on record as 58%. The “Microsomal Stability, % (45 minutes)” value in the data set “Microsomal stability” amounted to 72%.

Turning to `Cc1cc2c(C(C)C)c(O)c(O)cc2c(O)c1-c1c(C)cc2c(C(C)C)c(O)c(O)cc2c1O` [apogossypol], the “order of potency in terms of in vivo efficacy” value in the data set on B6Bcl2 mice [2] is reported as “compound A>apogossypol=gossypol”.

As to apogossypolone, the in vivo activity result with B6Bcl2 mice [2] is given as “not effective”.

In the case of `CC(C)C(C(=O)O)N1C(=O)/C(=C\c2ccc(Br)cc2)SC1=S` (stereo not drawn) [Compound 1], the concentration for half-maximal inhibition (IC50) in the data set on PC3ML turned out to be 60900 ± 1600 nM; in the data set with RS11846S it was 6500 ± 10000 nM; in the data set on H460 it was 3000 ± 2400 nM; in the data set with A549L, 12200 ± 5900 nM. The molecule further gave a Kd on BCL-xL of 1100 nM. Moreover, the “Plasma Stability, % (45 minutes)” value in the data set “Plasma stability” worked out at 56%. Moreover, the “Microsomal Stability, % (45 minutes)” value in “Microsomal stability” was 54%.

Take `CC(C)C(C(=O)O)N1C(=O)/C(=C\c2ccc(-c3ccccc3)cc2)SC1=S` (stereo not drawn) [Compound 2]: the Kd at BCL-xL was 160 nM. For the same molecule, the “Plasma Stability, % (45 minutes)” value in “Plasma stability” was found to be 59%. The “Microsomal Stability, % (45 minutes)” value in the data set “Microsomal stability” is recorded as 22%.

The record behind these values is patent publication US20090258914A1, “Inhibitor of Anti-Apoptotic Proteins” (Burnham Institute for Medical Research, priority 2008, published 2009).
